Measured values taken from the NIST ThermoML archive (doi:10.1016/j.jct.2018.12.021).
± gives the expanded uncertainty stated by the source.

Assay: mn = molality of the nth substance listed, in mol/kg
Conditions: for electrical conductivity / mass density: 100 kPa, Liquid; for electrical conductivity: Direct current cell with electrodes; for mass density: Vibrating tube method; for surface tension liquid-gas: Ring tensiometer

CCCCCCCCCCCC[n+]1ccsc1.[Br-] [N-dodecylthiazolium bromide] + O
Conditions | electrical conductivity [S/m] | mass density [kg/m3] | surface tension liquid-gas [mN/m]
293.15 K, m1 = 0.00122 | – | 998.24 ± 1.6 | –
293.15 K, m1 = 0.00157 | 0.0131 ± 0.00091 | 998.27 ± 1.6 | –
293.15 K, m1 = 0.00191 | – | 998.29 ± 1.6 | –
293.15 K, m1 = 0.00201 | 0.017 ± 0.0011 | 998.3 ± 1.6 | –
293.15 K, m1 = 0.00258 | – | 998.33 ± 1.6 | –
293.15 K, m1 = 0.00299 | 0.0246 ± 0.0016 | 998.36 ± 1.6 | –
293.15 K, m1 = 0.00326 | – | 998.38 ± 1.6 | –
293.15 K, m1 = 0.00407 | 0.033 ± 0.0023 | 998.43 ± 1.6 | –
293.15 K, m1 = 0.00429 | – | 998.45 ± 1.6 | –
293.15 K, m1 = 0.00507 | 0.0421 ± 0.0027 | 998.5 ± 1.6 | –
293.15 K, m1 = 0.00548 | – | 998.53 ± 1.6 | –
293.15 K, m1 = 0.00602 | 0.0483 ± 0.0031 | 998.57 ± 1.6 | –
293.15 K, m1 = 0.00698 | 0.0568 ± 0.0038 | 998.64 ± 1.6 | –
293.15 K, m1 = 0.00753 | 0.0603 ± 0.0034 | 998.68 ± 1.6 | –
293.15 K, m1 = 0.00905 | 0.0699 ± 0.0039 | 998.78 ± 1.6 | –
293.15 K, m1 = 0.01006 | 0.0754 ± 0.0039 | 998.85 ± 1.6 | –
293.15 K, m1 = 0.01266 | 0.0892 ± 0.0041 | 999.01 ± 1.6 | –
293.15 K, m1 = 0.01513 | 0.0958 ± 0.0039 | 999.17 ± 1.6 | –
293.15 K, m1 = 0.01771 | 0.103 ± 0.0041 | 999.33 ± 1.6 | –
293.15 K, m1 = 0.01974 | 0.107 ± 0.0042 | 999.46 ± 1.6 | –
293.15 K, m1 = 0.02301 | 0.116 ± 0.0048 | 999.66 ± 1.6 | –
293.15 K, m1 = 0.02601 | 0.123 ± 0.0052 | 999.84 ± 1.6 | –
298.15 K, m1 = 0.00122 | – | 997.08 ± 1.6 | –
298.15 K, m1 = 0.00157 | 0.0147 ± 0.001 | 997.1 ± 1.6 | –
298.15 K, m1 = 0.00191 | – | 997.12 ± 1.6 | –
298.15 K, m1 = 0.00201 | 0.0189 ± 0.0012 | 997.13 ± 1.6 | –
298.15 K, m1 = 0.00258 | – | 997.16 ± 1.6 | –
298.15 K, m1 = 0.00299 | 0.0276 ± 0.0017 | 997.19 ± 1.6 | –
298.15 K, m1 = 0.00326 | – | 997.21 ± 1.6 | –
298.15 K, m1 = 0.00407 | 0.0365 ± 0.0025 | 997.26 ± 1.6 | –
298.15 K, m1 = 0.00429 | – | 997.28 ± 1.6 | –
298.15 K, m1 = 0.00507 | 0.0469 ± 0.003 | 997.33 ± 1.6 | –
298.15 K, m1 = 0.00548 | – | 997.36 ± 1.6 | –
298.15 K, m1 = 0.00602 | 0.0535 ± 0.0035 | 997.39 ± 1.6 | –
298.15 K, m1 = 0.00698 | 0.0632 ± 0.0043 | 997.46 ± 1.6 | –
298.15 K, m1 = 0.00753 | 0.0671 ± 0.0038 | 997.5 ± 1.6 | –
298.15 K, m1 = 0.00905 | 0.0779 ± 0.0044 | 997.61 ± 1.6 | –
298.15 K, m1 = 0.01006 | 0.0845 ± 0.0045 | 997.68 ± 1.6 | –
298.15 K, m1 = 0.01266 | 0.1 ± 0.0049 | 997.84 ± 1.6 | –
298.15 K, m1 = 0.01513 | 0.11 ± 0.0044 | 998 ± 1.6 | –
298.15 K, m1 = 0.01771 | 0.117 ± 0.0046 | 998.16 ± 1.6 | –
298.15 K, m1 = 0.01974 | 0.123 ± 0.0049 | 998.29 ± 1.6 | –
298.15 K, m1 = 0.02301 | 0.132 ± 0.0054 | 998.49 ± 1.6 | –
298.15 K, m1 = 0.02601 | 0.14 ± 0.0059 | 998.67 ± 1.6 | –
303.15 K, m1 = 0.00122 | – | 995.67 ± 1.6 | –
303.15 K, m1 = 0.00157 | 0.0164 ± 0.0011 | 995.69 ± 1.6 | 60.2 ± 1.9
303.15 K, m1 = 0.00191 | – | 995.71 ± 1.6 | –
303.15 K, m1 = 0.00201 | 0.0209 ± 0.0014 | 995.72 ± 1.6 | 57.03 ± 1.8
303.15 K, m1 = 0.00258 | – | 995.75 ± 1.6 | –
303.15 K, m1 = 0.00299 | 0.0305 ± 0.0019 | 995.78 ± 1.6 | 53.96 ± 1.7
303.15 K, m1 = 0.00326 | – | 995.8 ± 1.6 | –
303.15 K, m1 = 0.00407 | 0.0402 ± 0.0028 | 995.85 ± 1.6 | 49.57 ± 1.6
303.15 K, m1 = 0.00429 | – | 995.87 ± 1.6 | –
303.15 K, m1 = 0.00507 | 0.0517 ± 0.0033 | 995.92 ± 1.6 | 43.38 ± 1.4
303.15 K, m1 = 0.00548 | – | 995.95 ± 1.6 | –
303.15 K, m1 = 0.00602 | 0.0589 ± 0.0038 | 995.98 ± 1.6 | 41.31 ± 1.3
303.15 K, m1 = 0.00698 | 0.0694 ± 0.0046 | 996.04 ± 1.6 | 38.15 ± 1.2
303.15 K, m1 = 0.00753 | 0.0734 ± 0.0042 | 996.08 ± 1.6 | 37.87 ± 1.2
303.15 K, m1 = 0.00905 | 0.0859 ± 0.005 | 996.18 ± 1.6 | 32.2 ± 1.1
303.15 K, m1 = 0.01006 | 0.093 ± 0.0059 | 996.25 ± 1.6 | 32.54 ± 1.1
303.15 K, m1 = 0.01266 | 0.117 ± 0.0059 | 996.42 ± 1.6 | 32.07 ± 1.1
303.15 K, m1 = 0.01513 | 0.125 ± 0.0046 | 996.57 ± 1.6 | 32.43 ± 1.1
303.15 K, m1 = 0.01771 | 0.132 ± 0.005 | 996.72 ± 1.6 | 31.44 ± 1
303.15 K, m1 = 0.01974 | 0.138 ± 0.0054 | 996.84 ± 1.6 | 31.87 ± 1
303.15 K, m1 = 0.02301 | 0.148 ± 0.006 | 997.04 ± 1.6 | –
303.15 K, m1 = 0.02601 | 0.156 ± 0.0066 | 997.2 ± 1.6 | 32.42 ± 1.1
308.15 K, m1 = 0.00122 | – | 994.05 ± 1.6 | –
308.15 K, m1 = 0.00157 | 0.018 ± 0.0012 | 994.07 ± 1.6 | –
308.15 K, m1 = 0.00191 | – | 994.09 ± 1.6 | –
308.15 K, m1 = 0.00201 | 0.0229 ± 0.0015 | 994.1 ± 1.6 | –
308.15 K, m1 = 0.00258 | – | 994.14 ± 1.6 | –
308.15 K, m1 = 0.00299 | 0.0334 ± 0.0021 | 994.17 ± 1.6 | –
308.15 K, m1 = 0.00326 | – | 994.18 ± 1.6 | –
308.15 K, m1 = 0.00407 | 0.0443 ± 0.003 | 994.24 ± 1.6 | –
308.15 K, m1 = 0.00429 | – | 994.25 ± 1.6 | –
308.15 K, m1 = 0.00507 | 0.0563 ± 0.0036 | 994.3 ± 1.6 | –
308.15 K, m1 = 0.00548 | – | 994.33 ± 1.6 | –
308.15 K, m1 = 0.00602 | 0.0646 ± 0.0042 | 994.36 ± 1.6 | –
308.15 K, m1 = 0.00698 | 0.0757 ± 0.005 | 994.42 ± 1.6 | –
308.15 K, m1 = 0.00753 | 0.0803 ± 0.0054 | 994.46 ± 1.6 | –
308.15 K, m1 = 0.00905 | 0.0978 ± 0.0066 | 994.55 ± 1.6 | –
308.15 K, m1 = 0.01006 | 0.107 ± 0.0064 | 994.63 ± 1.6 | –
308.15 K, m1 = 0.01266 | 0.131 ± 0.0064 | 994.78 ± 1.6 | –
308.15 K, m1 = 0.01513 | 0.141 ± 0.0053 | 994.93 ± 1.6 | –
308.15 K, m1 = 0.01771 | 0.148 ± 0.0057 | 995.08 ± 1.6 | –
308.15 K, m1 = 0.01974 | 0.156 ± 0.0059 | 995.2 ± 1.6 | –
308.15 K, m1 = 0.02301 | 0.165 ± 0.0063 | 995.4 ± 1.6 | –
308.15 K, m1 = 0.02601 | 0.174 ± 0.0075 | 995.56 ± 1.6 | –
313.15 K, m1 = 0.00122 | – | 992.22 ± 1.6 | –
313.15 K, m1 = 0.00157 | 0.0197 ± 0.0013 | 992.24 ± 1.6 | –
313.15 K, m1 = 0.00191 | – | 992.26 ± 1.6 | –
313.15 K, m1 = 0.00201 | 0.025 ± 0.0016 | 992.27 ± 1.6 | –
313.15 K, m1 = 0.00258 | – | 992.3 ± 1.6 | –
313.15 K, m1 = 0.00299 | 0.0366 ± 0.0023 | 992.33 ± 1.6 | –
313.15 K, m1 = 0.00326 | – | 992.35 ± 1.6 | –
313.15 K, m1 = 0.00407 | 0.0485 ± 0.0032 | 992.4 ± 1.6 | –
313.15 K, m1 = 0.00429 | – | 992.42 ± 1.6 | –
313.15 K, m1 = 0.00507 | 0.0614 ± 0.0039 | 992.46 ± 1.6 | –
313.15 K, m1 = 0.00548 | – | 992.49 ± 1.6 | –
313.15 K, m1 = 0.00602 | 0.0703 ± 0.0047 | 992.52 ± 1.6 | –
313.15 K, m1 = 0.00698 | 0.0838 ± 0.0062 | 992.58 ± 1.6 | –
313.15 K, m1 = 0.00753 | 0.0904 ± 0.0063 | 992.62 ± 1.6 | –
313.15 K, m1 = 0.00905 | 0.11 ± 0.0075 | 992.72 ± 1.6 | –
313.15 K, m1 = 0.01006 | 0.122 ± 0.0071 | 992.79 ± 1.6 | –
313.15 K, m1 = 0.01266 | 0.146 ± 0.0072 | 992.94 ± 1.6 | –
313.15 K, m1 = 0.01513 | 0.159 ± 0.0065 | 993.07 ± 1.6 | –
313.15 K, m1 = 0.01771 | 0.171 ± 0.0066 | 993.22 ± 1.6 | –
313.15 K, m1 = 0.01974 | 0.177 ± 0.0064 | 993.33 ± 1.6 | –
313.15 K, m1 = 0.02301 | 0.187 ± 0.007 | 993.52 ± 1.6 | –
313.15 K, m1 = 0.02601 | 0.196 ± 0.0075 | 993.68 ± 1.6 | –
